# Measured values published in patent US9351974B2, “Substituted pteridinones for the treatment of cancer” (OSI Pharmaceuticals, LLC, priority 2011, dated 2016).
# Tests used:
# [1] = biological target: T1, His-tagged full length RSK1 (RPS6KA1) (Homo sapiens, UniProt Q15418); assay: RSK1 Omnia Assay for compound IC50 determination; assay type: biochemical; conditions: ATP 15 μM, n=2, read-out: Mean RSK1 Biochem IC50
# T1 construct: His-tagged full length RSK1 (RPS6KA1, Millipore 14-509); His; purchased Millipore 14-509
# T1 sequence (Q15418 whole entry): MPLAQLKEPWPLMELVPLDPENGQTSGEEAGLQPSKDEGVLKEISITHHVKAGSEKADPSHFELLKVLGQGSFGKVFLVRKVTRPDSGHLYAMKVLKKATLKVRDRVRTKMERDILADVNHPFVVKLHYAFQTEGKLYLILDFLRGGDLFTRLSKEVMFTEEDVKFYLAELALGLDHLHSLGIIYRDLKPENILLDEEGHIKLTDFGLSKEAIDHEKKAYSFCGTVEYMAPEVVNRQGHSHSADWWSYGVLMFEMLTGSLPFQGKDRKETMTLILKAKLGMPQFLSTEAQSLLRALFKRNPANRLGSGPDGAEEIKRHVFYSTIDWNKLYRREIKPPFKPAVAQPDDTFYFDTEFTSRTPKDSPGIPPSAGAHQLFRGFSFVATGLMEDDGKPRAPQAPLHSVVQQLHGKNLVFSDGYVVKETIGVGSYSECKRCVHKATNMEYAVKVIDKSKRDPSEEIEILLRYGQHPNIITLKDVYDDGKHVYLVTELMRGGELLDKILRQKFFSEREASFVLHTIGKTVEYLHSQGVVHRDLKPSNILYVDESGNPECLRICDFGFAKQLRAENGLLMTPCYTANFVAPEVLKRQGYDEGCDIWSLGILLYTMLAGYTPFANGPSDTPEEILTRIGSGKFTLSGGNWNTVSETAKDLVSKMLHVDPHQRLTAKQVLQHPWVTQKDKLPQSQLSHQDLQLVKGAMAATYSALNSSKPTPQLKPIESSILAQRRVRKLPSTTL
# Experimental: RSK1 & RSK2 Omnia Assay Protocol for Compound IC50 Determination
# The Omnia Assay (Invitrogen) has been optimized for His-tagged full length RSK1 (RPS6KA1, Millipore 14-509) and for His-tagged full-length RSK2 (RPS6KA3, Invitrogen PV3323). In this assay system, Omnia ST Peptide 6 (Invitrogen KNZ1061) functions as a substrate for RSK1 or RSK2. Phosphorylation of this SOX-containing peptide results in an increase in fluorescence at 485 nm upon excitation at 360 nm.
# Assays are carried out in 384-well OptiPlates (Perkin Elmer 6007290) in a total volume of 20 μL containing RSK1 ([…]) or RSK2 ([…]), Omnia ST Peptide 6 (5 μM), ATP (15 μM, Km=16.3 μM), and test compound (variable) in RSK assay buffer (50 mM HEPES, pH 7.5, 10 mM MgCl2, 0.01% Tween-20, 1% glycerol, 1 mM DTT, 1 mM EGTA, 0.01% BSA) with 1% DMSO.
# IC50s for test compounds are typically determined using an 11-point three-fold serial dilution with a final assay concentration ranging either from 170 μM to […] or from 17 μM to […]. All compound concentrations are assayed in duplicate. Initial compound dilutions are prepared at 100× concentration in 100% DMSO from a 10 mM stock solution. Compounds are further diluted 1:25 in assay buffer resulting in a 4× concentrated solution.
# To run the assay 5 μL of the above 4× concentrated compound solution (or 4% DMSO for positive controls) is added to the assay plate followed by 5 μL of a solution containing peptide (20 μM) and ATP (60 μM) in assay buffer. The reaction is initiated by the addition of 10 μL of RSK1 ([…]) or RSK2 ([…]) in assay buffer, or assay buffer alone for negative controls. The increase in fluorescence due to peptide phosphorylation is monitored continuously as a function of time using a Spectramax M5 plate reader (Molecular Devices) equipped with SoftMax Pro software.
# The slopes from the linear portion of progress curves are used to determine IC50 values by non-linear curve-fitting to a four-parameter equation using GraphPad Prism (GraphPad Software, Inc.) or XLFit (IDBS). IC50's are determined in duplicate (n=2) and Ki values are calculated from IC50 values using the Cheng-Prusoff equation assuming a competitive mode of inhibition.
# [2] = biological target: T2, His-tagged full-length RSK2 (RPS6KA3) (Homo sapiens, UniProt P51812); assay: RSK2 Omnia Assay for compound IC50 determination; assay type: biochemical; conditions: ATP 15 μM, n=2, read-out: Mean RSK2 Biochem IC50
# T2 construct: His-tagged full-length RSK2 (RPS6KA3, Invitrogen PV3323); His; purchased Invitrogen PV3323
# T2 sequence (P51812 whole entry): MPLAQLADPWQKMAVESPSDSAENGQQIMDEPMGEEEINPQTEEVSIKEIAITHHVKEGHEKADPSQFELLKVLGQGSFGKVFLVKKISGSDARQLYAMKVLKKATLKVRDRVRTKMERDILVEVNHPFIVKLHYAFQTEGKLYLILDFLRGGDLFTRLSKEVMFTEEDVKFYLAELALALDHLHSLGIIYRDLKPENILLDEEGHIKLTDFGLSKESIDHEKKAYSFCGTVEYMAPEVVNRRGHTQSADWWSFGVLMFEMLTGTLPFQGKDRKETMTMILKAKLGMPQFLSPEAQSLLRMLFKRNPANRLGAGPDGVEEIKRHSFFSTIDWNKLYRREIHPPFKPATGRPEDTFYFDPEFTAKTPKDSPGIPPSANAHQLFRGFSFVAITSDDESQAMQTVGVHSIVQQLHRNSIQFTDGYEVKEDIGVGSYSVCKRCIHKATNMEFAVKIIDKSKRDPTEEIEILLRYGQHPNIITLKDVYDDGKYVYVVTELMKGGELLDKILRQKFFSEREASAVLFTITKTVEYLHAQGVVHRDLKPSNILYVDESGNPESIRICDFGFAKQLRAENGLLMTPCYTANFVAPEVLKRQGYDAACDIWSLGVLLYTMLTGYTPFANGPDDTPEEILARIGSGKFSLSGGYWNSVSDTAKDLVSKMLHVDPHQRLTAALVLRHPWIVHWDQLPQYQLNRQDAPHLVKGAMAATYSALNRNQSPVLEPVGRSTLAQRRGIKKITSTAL
# Outline: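 Initial-rate slopes from continuous kinetic reads were fitted to a four-parameter equation for IC50 (n=2). Ki was then derived by Cheng-Prusoff assuming ATP-competitive inhibition. Reactions contained 15 μM ATP (Km 16.3 μM), 5 μM Omnia ST Peptide 6, and […] in 50 mM HEPES pH 7.5, 10 mM MgCl2, 1 mM DTT, 1% DMSO. Compounds spanned 11 threefold steps, […] final.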
# RSK1-4 = conditions: G. P. Sapkota et al., Biochem J., 401, 29-38 (2007); cited from earlier work
IC50 [1],IC50 [2],Compound,inhibitor of RSK1-4 (RSK1-4)
≤ 100 nM,≤ 100 nM,"C[C@@H]1C(=O)N(c2cccnc2)c2cnc(Nc3ccc4[nH]ncc4c3)nc2N1C1CCCCC1 [Example 23, (7R)-8-cyclohexyl-2-(1H-indazol-5-ylamino)-7-methyl-5-(pyridin-3-yl)-7,8-dihydropteridin-6(5H)-one]",–
≤ 100 nM,≤ 100 nM,"C[C@@H]1C(=O)N(c2ccsc2)c2cnc(Nc3ccc4[nH]ncc4c3)nc2N1C1CCCCC1 [Example 57, (7R)-8-cyclohexyl-2-(1H-indazol-5-ylamino)-7-methyl-5-(thiophen-3-yl)-7,8-dihydropteridin-6(5H)-one]",–
–,–,CC(C)CCN1c2nc(Nc3cc(F)c(O)c(F)c3)ncc2N(C)C(=O)C1C (stereo not shown) [BI-D1870],potent inhibitor
≤ 100 nM,≤ 100 nM,"C[C@@H]1C(=O)N(c2ccccc2)c2cnc(Nc3ccc4[nH]ncc4c3)nc2N1C1CCCC1 [Example 66, (7R)-8-cyclopentyl-2-(1H-indazol-5-ylamino)-7-methyl-5-phenyl-7,8-dihydropteridin-6(5H)-one]",–
≤ 100 nM,≤ 100 nM,"C[C@@H]1C(=O)N(c2cccc(C#N)c2)c2cnc(Nc3ccc4[nH]ncc4c3)nc2N1C1CCCCC1 [Example 29, 3-[(7R)-8-cyclohexyl-2-(1H-indazol-5-ylamino)-7-methyl-6-oxo-7,8-dihydropteridin-5(6H)-yl]benzonitrile]",–
–,≤ 100 nM,"Cc1ccc(N2C(=O)[C@@H](C)N(C3CCCCC3)c3nc(Nc4ccc5[nH]ncc5c4)ncc32)cc1C#N [Example 53, 5-[(7R)-8-cyclohexyl-2-(1H-indazol-5-ylamino)-7-methyl-6-oxo-7,8-dihydropteridin-5(6H)-yl]-2-methylbenzonitrile]",–
–,≤ 100 nM,"C[C@@H]1C(=O)N(c2ccc(NS(C)(=O)=O)cc2)c2cnc(Nc3ccc4[nH]ncc4c3)nc2N1C1CCCCC1 [Example 47, N-{4-[(7R)-8-cyclohexyl-2-(1H-indazol-5-ylamino)-7-methyl-6-oxo-7,8-dihydropteridin-5(6H)-yl]phenyl}methanesulfonamide]",–
–,≤ 100 nM,"C[C@@H]1C(=O)N(c2cccc(C#N)c2)c2cnc(Nc3cc(F)c4[nH]ncc4c3)nc2N1c1cccc(F)c1 [compound 183, 3-[(7R)-2-[(7-fluoro-1H-indazol-5-yl)amino]-8-(3-fluorophenyl)-7-methyl-6-oxo-7,8-dihydropteridin-5(6H)-yl]benzonitrile]",–
–,≤ 100 nM,"C[C@@H]1C(=O)N(c2cc(F)cc(F)c2)c2cnc(Nc3ccc4[nH]ncc4c3)nc2N1C1CCCCC1 [compound 95, (7R)-8-cyclohexyl-5-(3,5-difluorophenyl)-2-(1H-indazol-5-ylamino)-7-methyl-7,8-dihydropteridin-6(5H)-one]",–
–,100 to 1000 nM,"CC(C)N1c2nc(Nc3ccc4[nH]ncc4c3)ncc2N(c2ccccc2)C(=O)C1C (stereo not shown) [Example 13, 2-(1H-indazol-5-ylamino)-7-methyl-5-phenyl-8-(propan-2-yl)-7,8-dihydropteridin-6(5H)-one]",–
–,≤ 100 nM,"CC(C)CCN1c2nc(Nc3cc(F)c(O)c(F)c3)ncc2N(c2cccc(C#N)c2)C(=O)[C@H]1C [Example 89, 3-[(7R)-2-[(3,5-difluoro-4-hydroxyphenyl)amino]-7-methyl-8-(3-methylbutyl)-6-oxo-7,8-dihydropteridin-5(6H)-yl]benzonitrile]",–
–,≤ 100 nM,"C[C@@H]1C(=O)N(c2cccnc2)c2cnc(Nc3cc(F)c4[nH]ncc4c3)nc2N1C1CCC2(CC1)CC2 [Example 298, (7R)-2-[(7-fluoro-1H-indazol-5-yl)amino]-7-methyl-5-(pyridin-3-yl)-8-(spiro[2.5]oct-6-yl)-7,8-dihydropteridin-6(5H)-one]",–
–,≤ 100 nM,"C[C@@H]1C(=O)N(c2cccnc2)c2cnc(Nc3cnc4[nH]ncc4c3)nc2N1C1CCCCC1 [compound 154, (7R)-8-cyclohexyl-7-methyl-2-(1H-pyrazolo[3,4-b]pyridin-5-ylamino)-5-(pyridin-3-yl)-7,8-dihydropteridin-6(5H)-one]",–
–,≤ 100 nM,"CO[C@H]1CC[C@H](N2c3nc(Nc4ccc5[nH]c(=O)oc5c4)ncc3N(c3cccc(C#N)c3)C(=O)[C@H]2C)CC1 [compound 229, 3-[(7R)-8-(trans-4-methoxycyclohexyl)-7-methyl-6-oxo-2-[(2-oxo-2,3-dihydro-1,3-benzoxazol-6-yl)amino]-7,8-dihydropteridin-5(6H)-yl]benzonitrile]",–
–,> 1000 nM,COc1ccc(N2C(=O)[C@@H](C)N(C3CCCCC3)c3nc(NCCc4cn[nH]c4)ncc32)cc1OC [compound 170],–
–,≤ 100 nM,"C[C@@H]1C(=O)N(c2cccc(C#N)c2)c2cnc(Nc3cc4cn[nH]c4cc3Cl)nc2N1C1CCCCC1 [compound 118, 3-[(7R)-2-[(6-chloro-1H-indazol-5-yl)amino]-8-cyclohexyl-7-methyl-6-oxo-7,8-dihydropteridin-5(6H)-yl]benzonitrile]",–
–,≤ 100 nM,"C[C@@H]1C(=O)N(c2cccc(F)c2)c2cnc(Nc3ccc4[nH]ncc4c3F)nc2N1C1CCCCC1 [compound 120, (7R)-8-cyclohexyl-2-[(4-fluoro-1H-indazol-5-yl)amino]-5-(3-fluorophenyl)-7-methyl-7,8-dihydropteridin-6(5H)-one]",–

Compound,IC50 [1],IC50 [2],inhibitor of RSK1-4 (RSK1-4)
"(7R)-8-cyclohexyl-2-[(7-fluoro-1H-indazol-5-yl)amino]-7-methyl-5-[4-(morpholin-4-yl)phenyl]-7,8-dihydropteridin-6(5H)-one [compound 134]",–,≤ 100 nM,–
